Converted amounts (≈) assume the structure as drawn. Read-outs that look alike come from different tables or passages of the source.
Key:
Assay type in all cases: cell-based, Staphylococcus aureus
S. aureus ATCC 29213 [1] = experiment: MIC, microdilution in CAMHB 24 h, with or without tomatidine/compound; settings: for MIC: Staphylococcus aureus
S. aureus ATCC 29213 [2] = experiment: Checkerboard assay, aminoglycoside and tomatidine; settings: for MIC: Staphylococcus aureus, ATCC29213, checkerboard
Procedure: This checkerboard protocol (Eliopoulos and Moellering, 1996) was conducted by a microdilution method similar to that use for standard MICs determination. In 96 wells plates, antibiotics were loaded at a 4× concentration (where X is the maximal tested concentration) in well A1 and at a 2× concentration in the others wells of the column 1. Antibiotics were serially diluted 1:1 from the column 2 to column 10. […] Wells A12, B12, […] are positive untreated controls whereas wells […] are negative non-inoculated controls. […] The FIC index was calculated as follow (Eliopoulos and Moellering, 1996): FIC […]/MICB, where A and B are MICs of compounds A and B in combination and where MICA and MICB are the MICs of compound A alone and of compound B alone, respectively, and FICA and FICB are the FICs of compound A and of compound B, respectively.

S. aureus 8325-4 = experiment: MIC, microdilution in CAMHB 24 h; settings: 8325-4; for MIC: Staphylococcus aureus, 83254
S. aureus Newbould = experiment: MIC, microdilution in CAMHB 24 h; settings: Newbould; for MIC: Staphylococcus aureus
S. aureus SHY97-3906 = experiment: MIC, microdilution in CAMHB 24 h; settings: for MIC: Staphylococcus aureus, SHY973906
S. aureus ATCC 43300 = experiment: MIC, microdilution in CAMHB 24 h; settings: ATCC 43300; for MIC: Staphylococcus aureus
S. aureus ATCC BAA-41 = experiment: MIC, microdilution in CAMHB 24 h; settings: for MIC: Staphylococcus aureus
S. aureus MA078038 = experiment: MIC, microdilution in CAMHB 24 h; settings: for MIC: Staphylococcus aureus, MA078038, aph(3′)-IIIa
[3] = 8 μg/ml of tomatidine, read-out: MIC +TO
[4] = absence of tomatidine, read-out: MIC −TO

Structure (SMILES): NC[C@H]1O[C@H](O[C@H]2[C@H](O)[C@@H](O[C@H]3O[C@H](CO)[C@@H](O)[C@H](N)[C@H]3O)[C@H](N)C[C@@H]2N)[C@H](O)[C@@H](O)[C@@H]1O [Kanamycin, kanamycin]
- Fold (−TO/+TO) (S. aureus ATCC 29213 [1]; ATCC 29123, 8 μg/ml of tomatidine): 4-8 fold
- Fold (−TO/+TO) (S. aureus ATCC 29213 [1]; ATCC 29213, tomatidine at 8 μg/ml): 4-8 fold
- MIC (S. aureus ATCC 29213 [1]; ATCC 29123 / ATCC 29213, ATCC 29123, 8 μg/ml of tomatidine, read-out: MIC +TO): 0.5 µg/mL (≈ 1.03 µM)
- MIC (S. aureus ATCC 29213 [1]; ATCC 29123 / ATCC 29213, ATCC 29123, absence of tomatidine, read-out: MIC −TO): 2 to 4 µg/mL (≈ 4.13 to 8.26 µM)
- MIC (S. aureus ATCC 29213 [1]; ATCC29213, ATCC 29213, Human (SSTI), read-out: MIC): 2 to 4 µg/mL (≈ 4.13 to 8.26 µM)
- MIC (S. aureus ATCC 29213 [1]; ATCC29213, ATCC 29213, absence of tomatidine, read-out: MIC −TO): 2 to 4 µg/mL (≈ 4.13 to 8.26 µM)
- MIC (S. aureus ATCC 29213 [1]; ATCC29213, ATCC 29213, presence of tomatidine at 8 μg/ml, read-out: MIC +TO): 0.5 µg/mL
- MIC (S. aureus ATCC 29213 [2]; tomatidine 0 μg/ml): 2 to 4 µg/mL
- MIC (S. aureus ATCC 29213 [2]; tomatidine 0.06 μg/ml): 2 µg/mL
- MIC (S. aureus ATCC 29213 [2]; tomatidine 0.12 μg/ml): 0.5 to 1 µg/mL
- MIC (S. aureus ATCC 29213 [2]; tomatidine 0.25 μg/ml): 0.5 µg/mL
- MIC (S. aureus ATCC 29213 [2]; tomatidine 0.5 μg/ml): 0.5 µg/mL
- MIC (S. aureus ATCC 29213 [2]; tomatidine 1 μg/ml): 0.5 to 1 µg/mL
- MIC (S. aureus ATCC 29213 [2]; tomatidine 2 μg/ml): 0.25 to 0.5 µg/mL
- MIC (S. aureus ATCC 29213 [2]; tomatidine 4 μg/ml): 0.5 µg/mL
- MIC (S. aureus ATCC 29213 [2]; tomatidine 8 μg/ml): 0.5 µg/mL
- FIC index (S. aureus ATCC 29213 [2]; aminoglycoside with tomatidine, tomatidine MIC considered 32 μg/ml, values overestimated): ≦0.193
- Fold (−TO/+TO) (S. aureus 8325-4; 8 μg/ml of tomatidine): 2-4 fold
- MIC (S. aureus 8325-4; [3]): 0.5 to 4 µg/mL (≈ 1.03 to 8.26 µM)
- MIC (S. aureus 8325-4; Laboratory strain, read-out: MIC): 2 to 8 µg/mL (≈ 4.13 to 16.5 µM)
- MIC (S. aureus 8325-4; [4]): 2 to 8 µg/mL (≈ 4.13 to 16.5 µM)
- Fold (−TO/+TO) (S. aureus Newbould; 8 μg/ml of tomatidine): 8 fold
- MIC (S. aureus Newbould; [3]): 0.5 µg/mL (≈ 1.03 µM)
- MIC (S. aureus Newbould; Cow (mastitis), read-out: MIC): 4 µg/mL (≈ 8.26 µM)
- MIC (S. aureus Newbould; [4]): 4 µg/mL (≈ 8.26 µM)
- Fold (−TO/+TO) (S. aureus SHY97-3906; SHY-3906, 8 μg/ml of tomatidine): 4 fold
- MIC (S. aureus SHY97-3906; SHY97-3906, Cow (mastitis), read-out: MIC): 2 µg/mL (≈ 4.13 µM)
- MIC (S. aureus SHY97-3906; SHY-3906, 8 μg/ml of tomatidine, read-out: MIC +TO): 0.5 µg/mL (≈ 1.03 µM)
- MIC (S. aureus SHY97-3906; SHY-3906, absence of tomatidine, read-out: MIC −TO): 2 µg/mL (≈ 4.13 µM)
- Fold (−TO/+TO) (S. aureus ATCC 43300; 8 μg/ml of tomatidine): 2-4 fold
- MIC (S. aureus ATCC 43300; ATCC 43300 / MRSA, Human (HA), MRSA, read-out: MIC): 512 to 1020 µg/mL (≈ 1060 to 2110 µM)
- MIC (S. aureus ATCC 43300; ATCC43300, 8 μg/ml of tomatidine, read-out: MIC +TO): 256 µg/mL (≈ 528 µM)
- MIC (S. aureus ATCC 43300; ATCC43300, absence of tomatidine, read-out: MIC −TO): 512 to 1020 µg/mL (≈ 1060 to 2110 µM)
- Fold (−TO/+TO) (S. aureus ATCC BAA-41; ATCC BAA-41, 8 μg/ml of tomatidine): 4-8 fold
- MIC (S. aureus ATCC BAA-41; ATCC BAA-41 / MRSA, ATCC BAA-41, Human (HA), MRSA, read-out: MIC): 256 to 512 µg/mL (≈ 528 to 1060 µM)
- MIC (S. aureus ATCC BAA-41; ATCCBAA41, ATCC BAA-41, ant(4′)-Ia, 8 μg/ml of tomatidine, read-out: MIC +TO): 64 µg/mL (≈ 132 µM)
- MIC (S. aureus ATCC BAA-41; ATCCBAA41, ATCC BAA-41, ant(4′)-Ia, absence of tomatidine, read-out: MIC −TO): 256 to 512 µg/mL (≈ 528 to 1060 µM)
- Fold (−TO/+TO) (S. aureus MA078038; MA078038, 8 μg/ml of tomatidine): >1 fold
- MIC (S. aureus MA078038; [3]): 1020 µg/mL (≈ 2110 µM)
- MIC (S. aureus MA078038; [4]): > 1020 µg/mL
